Reference: the supplement of paper PMC4862054

Experiments:
Details in all cases: incubation time: 72 h
CAL-148 [1] = assay: normalised response (% of control), CellTox Green; higher = less cell death (100 = DMSO, 0 = benzethonium chloride kill control)
Outline: (§1)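 Each value is the plate-normalised signal at one concentration of the series. Breast cancer cell lines (20 µl suspension) were incubated 72 h in 384-well plates with compound at 5 concentrations in 10-fold steps over a compound-specific 10,000-fold range. CellTox Green and then CellTiter-Glo were read, and each plate was scaled to 0.1 % DMSO (100) and a positive kill control (0).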

MDA-MB-453 [2] = assay: as above
Outline: as §1

HCC1599 [3] = assay: as above
Outline: as §1

MCF-10A [4] = assay: as above
Outline: as §1

DU-4475 [5] = assay: normalised viability (% of control), CellTiter-Blue; higher = more viable cells (about 100 = DMSO control)
Outline: (§2)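 384-well plates were pre-loaded with compound in 5 µl medium before 20 µl of breast cancer cell suspension was seeded. Following 72 h incubation, 2.5 µl CellTiter-Blue reagent was added for 2 h at 37 °C. Fluorescence was read at 560/590 nm and plates were normalised to vehicle (100) and a positive kill control (0), checked by Z'-factor. Normalised viability is reported at a single listed concentration of the series.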

CAL-148 [6] = assay: as above
Outline: as §2

HDQ-P1 [7] = assay: as above
Outline: as §2

CAL-51 [8] = assay: as above
Outline: as §2

MDA-MB-453 [9] = assay: as above
Outline: as §2

CAL-85-1 [10] = assay: as above
Outline: as §2

DU-4475 [11] = assay: normalised response (% of control), CellTiter-Glo; higher = more viable cells (100 = DMSO, 0 = benzethonium chloride kill control)
Outline: as §1

CAL-148 [12] = assay: as above
Outline: as §1

HDQ-P1 [13] = assay: as above
Outline: as §1

BT-474 = assay: as above
Outline: as §1

CAL-51 [14] = assay: as above
Outline: as §1

MDA-MB-453 [15] = assay: as above
Outline: as §1

MDA-MB-468 = assay: as above
Outline: as §1

CAL-85-1 [16] = assay: as above
Outline: as §1

MDA-MB-231 = assay: as above
Outline: as §1

HCC1143 = assay: as above
Outline: as §1

MDA-MB-436 = assay: as above
Outline: as §1

Hs578T = assay: as above
Outline: as §1

HCC1599 [17] = assay: as above
Outline: as §1

MCF-10A [18] = assay: as above
Outline: as §1

CAL-120 = assay: as above
Outline: as §1

BT-549 = assay: as above
Outline: as §1

SK-BR-3 = assay: as above
Outline: as §1

HCC1937 = assay: as above
Outline: as §1

MFM-223 = assay: as above
Outline: as §1

Compound	normalised response (CAL-148 [1])	normalised response (MDA-MB-453 [2])	normalised response (HCC1599 [3])	normalised response (MCF-10A [4])	normalised viability (DU-4475 [5])	normalised viability (CAL-148 [6])	normalised viability (HDQ-P1 [7])	normalised viability (CAL-51 [8])	normalised viability (MDA-MB-453 [9])	normalised viability (CAL-85-1 [10])	normalised response (DU-4475 [11])	normalised response (CAL-148 [12])	normalised response (HDQ-P1 [13])	normalised response (BT-474)	normalised response (CAL-51 [14])	normalised response (MDA-MB-453 [15])	normalised response (MDA-MB-468)	normalised response (CAL-85-1 [16])	normalised response (MDA-MB-231)	normalised response (HCC1143)	normalised response (MDA-MB-436)	normalised response (Hs578T)	normalised response (HCC1599 [17])	normalised response (MCF-10A [18])	normalised response (CAL-120)	normalised response (BT-549)	normalised response (SK-BR-3)	normalised response (HCC1937)	normalised response (MFM-223)
CCC1=C[C@@H]2CN(C1)Cc1c([nH]c3ccccc13)[C@@](C(=O)OC)(c1cc3c(cc1OC)N(C)[C@H]1[C@@](O)(C(=O)OC)[C@H](OC(C)=O)[C@]4(CC)C=CCN5CC[C@]31[C@@H]54)C2 [Vinorelbine] (10000 nM)	80.7%	90.3%	70.8%	41.4%	9.67%	30.3%	38.9%	11.5%	29.4%	44.2%	40.4%	49.6%	70.6%	48.2%	27.5%	53.8%	18.1%	48.9%	40.1%	55.3%	24.5%	15.9%	4.45%	78.3%	54%	36.1%	14.8%	69.8%	39.6%
CN(N=O)C(=O)N[C@@H](C=O)[C@@H](O)[C@H](O)[C@H](O)CO [Streptozocin] (10000 nM)	107%	84.9%	98.6%	116%	92.6%	105%	122%	101%	99.1%	91.1%	96.1%	107%	102%	100%	91.8%	95.6%	104%	98.5%	98%	106%	97.2%	109%	92.5%	110%	109%	97.7%	108%	105%	106%
COc1cc([C@@H]2c3cc4c(cc3[C@@H](O[C@@H]3O[C@@H]5CO[C@@H](C)O[C@H]5[C@H](O)[C@H]3O)[C@H]3COC(=O)[C@H]23)OCO4)cc(OC)c1O [Etoposide] (10000 nM)	49.6%	109%	91%	108%	4.57%	31.7%	62.6%	18.4%	61.4%	63.1%	19.6%	39.9%	82.3%	44.1%	23.9%	142%	38.5%	49.8%	70.8%	38.8%	36.6%	67.3%	11.8%	87.1%	73.7%	35.9%	15.8%	67.5%	90.8%
